The data set in a line: Solubility in orally acceptable oils and aqueous systems. Format: physicochemical. The following applies: in conventional, orally acceptable oils, such as safflower or sesame seed oils, and in aqueous systems.

With `Cc1ccc(F)cc1C(=O)Nc1ccc(C(=O)N2Cc3cccn3Cc3ccccc32)c(Cl)c1` [VPA-985, N-[4-(5H-pyrrolo[2,1-c][1,4]benzodiazepin-10(11H)ylcarbonyl)-3-chlorophenyl]-5-fluoro-2-methylbenzamide], the solubility entry is “highly insoluble”.

The values are drawn from patent publication US6352718B1, “Vasopressin antagonist formulation and process” (American Cyanamid Company, priority 1999, dated 2002).
